Test results as given in PMC6736633 (Bioorganic & medicinal chemistry letters, 2019).

Tested on: Mycobacterium tuberculosis (Mtb) H37Rv
Test: Mtb luminescence assay
Format: cell-based
Conditions: for relative Mtb signal / reduction in Mtb signal (in words): 20 μM

Row | Structure (SMILES) | relative Mtb signal | reduction in Mtb signal (in words) | also measured
1 | COc1cc2nccc(Nc3ccc(OCc4cccc(F)c4)c(Cl)c3)c2cc1OC [Compound 28] | 10% |  | 
2 | COc1cc2nccc(Nc3ccc(NC(C)=O)cc3)c2cc1OC [Compound 31] |  |  | effect on Mtb (in words) (across tested concentrations up to 20 μM): no effect
3 | COc1ccc2nccc(Nc3ccc(NC(=O)c4ccc(C)cc4)c(O)c3)c2c1 [Compound 32] |  | no reduction | 
4 | COc1ccc2c(Nc3ccc(NC(=O)c4ccc(C)cc4)c(O)c3)ccnc2c1 [Compound 33] |  | no reduction | 
5 | C#Cc1cccc(Nc2ncnc3cc(OCCOC)c(OCCOC)cc23)c1 [Erlotinib] |  |  | Mtb signal at plateau (plateau of effect): approximately 70%
6 | CS(=O)(=O)CCNCc1ccc(-c2ccc3ncnc(Nc4ccc(OCc5cccc(F)c5)c(Cl)c4)c3c2)o1 [Lapatinib] | below 10% |  | 
